Like-named read-outs stand apart in the source and are kept apart here.
Experiments:
BurB = format: biochemical, Burkholderia thailandensis
[1] = biological target: BurB from Burkholderia thailandensis (Burkholderia thailandensis); assay: SEC

Q: Which Km (BurB) does the source give for `C[S+](CC[C@H](N)C(=O)O)C[C@H]1O[C@@H](n2cnc3c(N)ncnc32)[C@H](O)[C@@H]1O` (stereo partly drawn) [SAM] here?
A: 1.8 mM

Q: For “BurB from Burkholderia thailandensis (enzyme)”, which stoichiometry N [1] is on record?
A: 4

Q: With `CSCC[C@H](N)C(=O)O` [Met] as the compound, how does the Km (BurB; pH 9.0, 40 °C) read?
A: 16.6 mM

Source: article PMC12542666, “Mechanistic insights into the dimethylsulfoniopropionate synthesis enzyme BurB” (Applied and Environmental Microbiology, 2025)
